The values that follow come from patent US9580463B2 (BRISTOL-MYERS SQUIBB COMPANY, priority 2013, dated 2017).

This assay concerns HCV genotype 1b (Con1) replicon in HUH-7 cells. The assay is described as follows: HCV replicon luciferase reporter assay, genotype 1b. It counts as cell-based. The settings on record: Hepatitis C virus, 72 h, genotype 1b replicon, 3 days incubation. The source says:
An HCV replicon whole cell system was established as described by Lohmann V, Korner F, Koch J, Herian U, Theilmann L, Bartenschlager R., Science 285(5424):110-3 (1999) and modified to introduce a luciferase reporter, as first described by Krieger et al (Krieger N, Lohmann V, and Bartenschlager R, J. Virol. 75(10):4614-4624 (2001)). CDNA encoding a humanized form of the Renilla luciferase gene and a linker sequence fused directly to the 3′-end of the luciferase gene were introduced into the replicon construct using an Asc1 restriction site located in core, directly upstream of the neomycin marker gene. The adaptive mutation at position 1179 (serine to isoleucine) was also introduced (Blight K J, Kolykhalov, A A, Rice, C M, Science 290(5498):1972-1974). A stable cell line constitutively expressing this HCV replicon construct was generated by first linearizing plasmid DNAs with ScaI. RNA transcripts were synthesized in vitro using the T7 MegaScript transcription kit (Ambion, Austin, Tex.) according to manufacturer's directions. In vitro transcripts of the cDNA were transfected into the human hepatoma cell line, HUH-7. […] Resulting cell lines were characterized for positive and negative strand RNA production and protein production over time. […]
HCV replicon luciferase assays were developed to monitor the inhibitory effects of compounds described in the disclosure on HCV genotypes 1a and 1b viral replication. HUH-7 cells, constitutively expressing the HCV replicon, were grown in Dulbecco's Modified Eagle Media (DMEM) (Gibco-BRL) containing 10% Fetal calf serum (FCS) (Sigma) and 1 mg/mL G418 (Gibco-BRL). Compounds were serially diluted 3 folds in DMSO for a twenty-point titration and subsequently transferred to sterile 384-well tissue-culture treated plates (Corning cat #3571). The plates were then seeded with 50 μL of cells at a density of 3.0×10^3 cells/well in DMEM containing 4% FCS (final DMSO concentration at 0.5%). After 3 days incubation at 37° C., cells were analyzed for Renilla Luciferase activity using the EnduRen as substrate (Promega cat #E6485). The EnduRen substrate was diluted in DMEM and then added to the plates to a final concentration of 7.5 μM. The plates were incubated for 2 hrs at 37° C. and then read immediately for 30 seconds with Viewlux Imager (PerkinElmer) using a luminescence program. To assess cytotoxicity of compounds, CC50 values were generated by multiplexing the EnduRen-containing plates with Cell Titer-Blue (Promega, cat # G8082). Cell-Titer Blue (3 μL) was added to each well and incubated for 8 hrs at 37° C. The fluorescence signal from each well was read, with an excitation wavelength at 525/10 nm and an emission wavelength of 598/10 nm, using the Viewlux Imager.
The EC50 values for compounds were calculated by using a four-parameter logistic equation: y=A+((B−A)/(1+((C/x)^D))), where A and B denotes minimal and maximal % inhibition, respectively, C is the EC50, D is the hill slope and x represents compound concentration.

Molecules are shown by their SMILES. Like-named read-outs stand apart in the source and are kept apart here.

Turning to `CCOc1cnc(O[C@@H]2C[C@H]3C(=O)N[C@]4(C(=O)NS(=O)(=O)C5(C)CC5)C[C@H]4/C=C\CC[C@H](C)C[C@@H](COC)[C@H](NC(=O)OC(C)(C)C(F)(F)F)C(=O)N3C2)c2ccc(OC)cc12` [Compound 1065, 1,1,1-trifluoro-2-methylpropan-2-yl ((2R,6S,7R,9S,13aS,14aR,16aS,Z)-2-((4-ethoxy-6-methoxyisoquinolin-1-yl)oxy)-7-(methoxymethyl)-9-methyl-14a-(((1-methylcyclopropyl)sulfonyl)carbamoyl)-5,16-dioxo-1,2,3,5,6,7,8,9,10,11,13a,14,14a,15,16,16a-hexadecahydrocyclopropa[e]pyrrolo[1,2-a][1,4]diazacyclopentadecin-6-yl)carbamate], the concentration giving a half-maximal response (EC50) (read-out: LE_1b (EC50, range)) was 0.1 to 0.5 nM.

In the case of `CCOc1cnc(O[C@@H]2C[C@H]3C(=O)N[C@]4(C(=O)NS(=O)(=O)C5(C)CC5)C[C@H]4/C=C\CC[C@@H](C)C[C@@H](COC)[C@H](NC(=O)OC(C)(C)C(F)(F)F)C(=O)N3C2)c2ccc(OC)cc12` [Compound 1066, 1,1,1-trifluoro-2-methylpropan-2-yl ((2R,6S,7R,9R,13aS,14aR,16aS,Z)-2-((4-ethoxy-6-methoxyisoquinolin-1-yl)oxy)-7-(methoxymethyl)-9-methyl-14a-(((1-methylcyclopropyl)sulfonyl)carbamoyl)-5,16-dioxo-1,2,3,5,6,7,8,9,10,11,13a,14,14a,15,16,16a-hexadecahydrocyclopropa[e]pyrrolo[1,2-a][1,4]diazacyclopentadecin-6-yl)carbamate], for the setting “read-out: LE_1b (EC50, range)”, the EC50 is 0.1 to 0.5 nM.

As for `CCOc1cnc(O[C@@H]2C[C@H]3C(=O)N[C@]4(C(=O)NS(=O)(=O)C5(C)CC5)C[C@H]4/C=C\CC[C@H](C)C[C@@H](COC)[C@H](NC(=O)OC(C)(C)C(C)(F)F)C(=O)N3C2)c2ccc(OC)cc12` [Compound 1067, 3,3-difluoro-2-methylbutan-2-yl ((2R,6S,7R,9S,13aS,14aR,16aS,Z)-2-((4-ethoxy-6-methoxyisoquinolin-1-yl)oxy)-7-(methoxymethyl)-9-methyl-14a-(((1-methylcyclopropyl)sulfonyl)carbamoyl)-5,16-dioxo-1,2,3,5,6,7,8,9,10,11,13a,14,14a,15,16,16a-hexadecahydrocyclopropa[e]pyrrolo[1,2-a][1,4]diazacyclopentadecin-6-yl)carbamate], the EC50 (read-out: LE_1b (EC50)) turned out to be 0.5 nM.

`CCOc1cnc(O[C@@H]2C[C@H]3C(=O)N[C@]4(C(=O)NS(=O)(=O)C5(C)CC5)C[C@H]4/C=C\CC[C@@H](C)C[C@@H](COC)[C@H](NC(=O)OC(C)(C)C(C)(F)F)C(=O)N3C2)c2ccc(OC)cc12` [Compound 1068, 3,3-difluoro-2-methylbutan-2-yl ((2R,6S,7R,9R,13aS,14aR,16aS,Z)-2-((4-ethoxy-6-methoxyisoquinolin-1-yl)oxy)-7-(methoxymethyl)-9-methyl-14a-(((1-methylcyclopropyl)sulfonyl)carbamoyl)-5,16-dioxo-1,2,3,5,6,7,8,9,10,11,13a,14,14a,15,16,16a-hexadecahydrocyclopropa[e]pyrrolo[1,2-a][1,4]diazacyclopentadecin-6-yl)carbamate]: the EC50 (read-out: LE_1b (EC50, range)) fell in the range of 0.1 to 0.5 nM.
